Laboratory results as given in paper PMC7138307 (PLoS ONE, 2020).

Assays:
Experiment in all cases: Ex vivo KiNativ ATP/ADP probe competition in mouse cortical brain lysates
Format in all cases: binding
TAO1 = molecular target: T1, TAO1 (Mus musculus, UniProt Q5F2E8); conditions: TNEVVAIKK; Lys1; ADP probe
T1 construct: from tissue; host or cells: mouse cortical brain lysate
T1 sequence (Q5F2E8 1-1001): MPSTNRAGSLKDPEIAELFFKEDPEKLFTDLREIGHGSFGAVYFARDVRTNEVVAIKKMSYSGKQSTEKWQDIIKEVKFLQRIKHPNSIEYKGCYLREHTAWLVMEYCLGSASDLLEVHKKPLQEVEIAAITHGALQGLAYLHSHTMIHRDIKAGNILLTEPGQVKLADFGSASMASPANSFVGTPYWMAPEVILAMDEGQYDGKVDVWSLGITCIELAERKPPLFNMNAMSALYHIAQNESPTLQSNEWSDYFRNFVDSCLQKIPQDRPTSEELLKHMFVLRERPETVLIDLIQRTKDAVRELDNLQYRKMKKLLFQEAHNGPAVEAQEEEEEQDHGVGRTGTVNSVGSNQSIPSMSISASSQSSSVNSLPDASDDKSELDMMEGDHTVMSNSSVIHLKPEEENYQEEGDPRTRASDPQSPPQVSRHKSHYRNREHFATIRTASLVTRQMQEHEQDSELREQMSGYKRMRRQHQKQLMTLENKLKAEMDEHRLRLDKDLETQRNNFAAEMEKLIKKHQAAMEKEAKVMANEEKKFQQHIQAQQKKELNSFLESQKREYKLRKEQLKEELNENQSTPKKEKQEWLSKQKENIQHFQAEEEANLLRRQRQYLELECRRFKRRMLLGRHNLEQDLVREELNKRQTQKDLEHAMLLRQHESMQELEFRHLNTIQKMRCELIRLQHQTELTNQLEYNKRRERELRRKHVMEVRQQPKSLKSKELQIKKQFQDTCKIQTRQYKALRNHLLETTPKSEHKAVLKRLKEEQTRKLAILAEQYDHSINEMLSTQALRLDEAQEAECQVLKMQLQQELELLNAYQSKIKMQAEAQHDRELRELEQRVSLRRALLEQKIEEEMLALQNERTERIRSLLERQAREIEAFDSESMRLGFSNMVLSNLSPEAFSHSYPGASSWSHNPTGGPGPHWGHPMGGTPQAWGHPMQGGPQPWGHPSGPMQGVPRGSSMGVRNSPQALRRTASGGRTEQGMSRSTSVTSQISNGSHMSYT

MLK2 = molecular target: T2, MLK2 (Mus musculus, UniProt Q66L42); conditions: DLKSINILILEAIENHNLADTVLK; Lys2; ATP probe
T2 construct: from tissue; host or cells: mouse cortical brain lysate

PIP4K2C = molecular target: T3, PIP4K2C (Mus musculus, UniProt Q91XU3); conditions: labeling site ATP
T3 construct: from tissue; host or cells: mouse cortical brain lysate
T3 sequence (Q91XU3 1-421): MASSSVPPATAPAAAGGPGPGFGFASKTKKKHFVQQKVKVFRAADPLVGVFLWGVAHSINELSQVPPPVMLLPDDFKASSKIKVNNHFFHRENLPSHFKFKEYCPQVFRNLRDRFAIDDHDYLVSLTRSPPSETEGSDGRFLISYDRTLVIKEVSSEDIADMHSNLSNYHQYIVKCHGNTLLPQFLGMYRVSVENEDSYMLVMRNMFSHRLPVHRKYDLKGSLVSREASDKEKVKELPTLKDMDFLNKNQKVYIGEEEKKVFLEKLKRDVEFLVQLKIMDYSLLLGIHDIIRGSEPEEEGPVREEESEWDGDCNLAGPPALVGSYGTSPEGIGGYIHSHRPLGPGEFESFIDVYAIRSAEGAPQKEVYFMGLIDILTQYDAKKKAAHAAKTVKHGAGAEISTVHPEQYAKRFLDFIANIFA

PIP5K3 = molecular target: T4, PIP5K3 (Mus musculus, UniProt Q9Z1T6); conditions: GGKSGAAFYATEDDRFILK, labeling site ATP
T4 construct: homogenized brain lysates were labeled with Desthiobiotin-ADP-acyl phosphate probe; from tissue; host or cells: mouse cortical brain lysate

TTBK1, TTBK2 = conditions: DIKPSNFAMGR; Lys2; ADP probe
CaMK1a = molecular target: T5, CaMK1a (Mus musculus, UniProt Q91YS8)
T5 construct: from tissue; host or cells: mouse cortical brain lysate

PITSLRE = molecular target: T6, PITSLRE (Mus musculus, UniProt P24788); conditions: DLKTSNLLLSHAGILK; Lys2; ATP probe
T6 construct: from tissue; host or cells: mouse cortical brain lysate
T6 sequence (P24788 1-784): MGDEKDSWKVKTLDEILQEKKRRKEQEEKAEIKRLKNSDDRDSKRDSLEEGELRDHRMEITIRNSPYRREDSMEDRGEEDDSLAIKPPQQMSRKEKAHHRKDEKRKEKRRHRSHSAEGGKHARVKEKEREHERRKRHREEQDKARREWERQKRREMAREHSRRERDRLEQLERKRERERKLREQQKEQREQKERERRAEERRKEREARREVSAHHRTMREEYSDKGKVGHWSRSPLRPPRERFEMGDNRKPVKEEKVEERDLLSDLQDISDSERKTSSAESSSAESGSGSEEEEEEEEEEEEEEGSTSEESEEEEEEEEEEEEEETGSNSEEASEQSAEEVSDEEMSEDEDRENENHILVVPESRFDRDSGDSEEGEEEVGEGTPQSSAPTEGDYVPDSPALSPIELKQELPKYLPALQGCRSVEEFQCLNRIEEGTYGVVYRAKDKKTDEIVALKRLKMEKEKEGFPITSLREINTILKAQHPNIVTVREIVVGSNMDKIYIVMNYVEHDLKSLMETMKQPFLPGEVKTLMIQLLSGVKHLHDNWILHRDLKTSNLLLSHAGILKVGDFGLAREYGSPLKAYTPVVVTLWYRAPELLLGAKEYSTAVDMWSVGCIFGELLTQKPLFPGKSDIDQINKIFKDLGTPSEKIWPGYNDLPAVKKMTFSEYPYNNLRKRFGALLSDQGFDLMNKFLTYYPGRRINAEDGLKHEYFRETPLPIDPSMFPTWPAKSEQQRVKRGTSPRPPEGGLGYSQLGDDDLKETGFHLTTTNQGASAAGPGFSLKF

FES = molecular target: T7, FES (Mus musculus, UniProt P16879); conditions: LRADNTPVAVKSCR, Lys1
T7 construct: homogenized brain lysates were labeled with Desthiobiotin-ADP-acyl phosphate probe; from tissue; host or cells: mouse cortical brain lysate

MAP4K5 = molecular target: T8, MAP4K5 (Mus musculus, UniProt Q8BPM2); conditions: NVHTGELAAVKIIK, Lys1
T8 construct: from tissue; host or cells: mouse cortical brain lysate
T8 sequence (Q8BPM2 whole entry): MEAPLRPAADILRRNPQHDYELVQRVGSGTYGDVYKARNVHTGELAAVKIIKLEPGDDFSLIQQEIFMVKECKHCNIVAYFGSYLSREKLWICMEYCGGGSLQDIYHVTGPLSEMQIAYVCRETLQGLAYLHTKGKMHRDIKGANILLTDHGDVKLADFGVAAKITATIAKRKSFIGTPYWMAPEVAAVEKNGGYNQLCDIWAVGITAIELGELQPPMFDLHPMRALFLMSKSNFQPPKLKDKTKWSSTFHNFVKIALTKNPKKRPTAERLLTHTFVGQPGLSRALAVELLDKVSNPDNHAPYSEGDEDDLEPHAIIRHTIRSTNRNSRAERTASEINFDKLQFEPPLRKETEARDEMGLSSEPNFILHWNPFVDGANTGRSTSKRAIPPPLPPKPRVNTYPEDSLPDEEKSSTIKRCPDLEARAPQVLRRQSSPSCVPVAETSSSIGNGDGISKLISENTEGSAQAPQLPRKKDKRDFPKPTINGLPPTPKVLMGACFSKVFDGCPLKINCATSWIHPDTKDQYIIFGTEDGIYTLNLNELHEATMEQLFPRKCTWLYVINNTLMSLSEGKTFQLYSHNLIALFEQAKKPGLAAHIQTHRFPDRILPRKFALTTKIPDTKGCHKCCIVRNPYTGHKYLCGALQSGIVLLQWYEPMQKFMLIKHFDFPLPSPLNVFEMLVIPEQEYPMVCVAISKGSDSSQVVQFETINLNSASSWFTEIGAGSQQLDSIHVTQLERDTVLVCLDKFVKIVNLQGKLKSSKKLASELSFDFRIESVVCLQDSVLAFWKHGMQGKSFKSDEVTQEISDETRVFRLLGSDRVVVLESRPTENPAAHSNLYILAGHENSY

T5 sequence (Q91YS8 whole entry): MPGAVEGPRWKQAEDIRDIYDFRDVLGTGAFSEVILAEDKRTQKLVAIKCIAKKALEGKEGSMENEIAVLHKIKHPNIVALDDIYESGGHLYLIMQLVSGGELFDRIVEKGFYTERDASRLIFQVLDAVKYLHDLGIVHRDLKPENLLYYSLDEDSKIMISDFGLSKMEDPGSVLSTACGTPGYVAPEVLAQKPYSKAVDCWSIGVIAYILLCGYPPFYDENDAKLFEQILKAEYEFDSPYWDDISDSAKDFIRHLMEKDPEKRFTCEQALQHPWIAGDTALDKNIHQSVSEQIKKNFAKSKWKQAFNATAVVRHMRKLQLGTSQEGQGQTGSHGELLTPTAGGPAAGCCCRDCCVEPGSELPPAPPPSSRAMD
T4 sequence (Q9Z1T6 whole entry): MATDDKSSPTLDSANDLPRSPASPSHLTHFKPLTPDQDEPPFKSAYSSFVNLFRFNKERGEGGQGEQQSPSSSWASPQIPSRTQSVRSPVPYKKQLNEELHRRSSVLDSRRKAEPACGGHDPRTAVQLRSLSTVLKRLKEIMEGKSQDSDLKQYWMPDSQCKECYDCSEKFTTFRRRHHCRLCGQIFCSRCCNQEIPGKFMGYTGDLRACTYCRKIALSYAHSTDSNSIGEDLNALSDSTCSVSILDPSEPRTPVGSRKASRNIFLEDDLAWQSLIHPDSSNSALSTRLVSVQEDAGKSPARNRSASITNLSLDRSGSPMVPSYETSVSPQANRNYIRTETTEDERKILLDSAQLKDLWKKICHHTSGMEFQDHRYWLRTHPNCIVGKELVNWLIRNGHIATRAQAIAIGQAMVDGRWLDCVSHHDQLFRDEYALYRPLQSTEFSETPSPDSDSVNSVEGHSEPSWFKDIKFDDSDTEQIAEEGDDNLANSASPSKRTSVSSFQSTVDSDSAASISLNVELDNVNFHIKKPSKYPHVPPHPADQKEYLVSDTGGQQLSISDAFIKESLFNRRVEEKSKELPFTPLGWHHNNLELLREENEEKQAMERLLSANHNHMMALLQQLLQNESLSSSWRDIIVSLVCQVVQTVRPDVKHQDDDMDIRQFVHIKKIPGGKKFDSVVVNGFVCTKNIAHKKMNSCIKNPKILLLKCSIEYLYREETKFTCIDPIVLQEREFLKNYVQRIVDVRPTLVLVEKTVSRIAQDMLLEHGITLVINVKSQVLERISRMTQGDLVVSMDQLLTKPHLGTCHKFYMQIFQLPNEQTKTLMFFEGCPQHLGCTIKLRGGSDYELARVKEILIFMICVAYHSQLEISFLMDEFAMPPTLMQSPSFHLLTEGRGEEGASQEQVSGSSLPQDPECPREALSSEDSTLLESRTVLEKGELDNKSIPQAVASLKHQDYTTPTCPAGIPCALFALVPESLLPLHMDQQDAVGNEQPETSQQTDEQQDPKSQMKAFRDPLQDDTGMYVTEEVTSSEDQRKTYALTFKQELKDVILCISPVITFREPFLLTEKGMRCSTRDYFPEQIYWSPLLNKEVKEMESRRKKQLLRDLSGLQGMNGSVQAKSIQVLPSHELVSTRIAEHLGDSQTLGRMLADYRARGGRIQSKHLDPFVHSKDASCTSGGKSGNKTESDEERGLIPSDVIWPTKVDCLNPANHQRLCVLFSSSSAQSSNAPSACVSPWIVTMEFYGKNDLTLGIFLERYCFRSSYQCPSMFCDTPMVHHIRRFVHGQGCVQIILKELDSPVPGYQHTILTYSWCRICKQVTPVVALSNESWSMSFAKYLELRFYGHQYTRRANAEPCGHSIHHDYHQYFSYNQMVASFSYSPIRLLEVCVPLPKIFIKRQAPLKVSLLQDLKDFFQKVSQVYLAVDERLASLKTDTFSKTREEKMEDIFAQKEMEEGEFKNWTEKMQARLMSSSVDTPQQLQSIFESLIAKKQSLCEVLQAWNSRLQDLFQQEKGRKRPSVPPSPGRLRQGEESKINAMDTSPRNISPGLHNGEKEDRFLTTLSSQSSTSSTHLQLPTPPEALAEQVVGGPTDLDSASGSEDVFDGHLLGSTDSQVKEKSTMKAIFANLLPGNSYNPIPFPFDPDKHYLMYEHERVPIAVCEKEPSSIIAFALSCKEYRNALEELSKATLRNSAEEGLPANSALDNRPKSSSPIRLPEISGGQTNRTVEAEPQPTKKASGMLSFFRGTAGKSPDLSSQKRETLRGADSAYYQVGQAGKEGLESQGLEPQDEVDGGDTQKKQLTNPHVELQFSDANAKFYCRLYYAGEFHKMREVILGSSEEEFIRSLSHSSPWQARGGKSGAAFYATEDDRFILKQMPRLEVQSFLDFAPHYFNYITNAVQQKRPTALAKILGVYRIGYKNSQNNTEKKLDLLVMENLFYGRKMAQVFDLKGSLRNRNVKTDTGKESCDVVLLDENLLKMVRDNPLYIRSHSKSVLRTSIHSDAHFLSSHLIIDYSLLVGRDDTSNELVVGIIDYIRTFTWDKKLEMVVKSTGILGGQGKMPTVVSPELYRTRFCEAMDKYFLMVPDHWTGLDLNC
T7 sequence (P16879 whole entry): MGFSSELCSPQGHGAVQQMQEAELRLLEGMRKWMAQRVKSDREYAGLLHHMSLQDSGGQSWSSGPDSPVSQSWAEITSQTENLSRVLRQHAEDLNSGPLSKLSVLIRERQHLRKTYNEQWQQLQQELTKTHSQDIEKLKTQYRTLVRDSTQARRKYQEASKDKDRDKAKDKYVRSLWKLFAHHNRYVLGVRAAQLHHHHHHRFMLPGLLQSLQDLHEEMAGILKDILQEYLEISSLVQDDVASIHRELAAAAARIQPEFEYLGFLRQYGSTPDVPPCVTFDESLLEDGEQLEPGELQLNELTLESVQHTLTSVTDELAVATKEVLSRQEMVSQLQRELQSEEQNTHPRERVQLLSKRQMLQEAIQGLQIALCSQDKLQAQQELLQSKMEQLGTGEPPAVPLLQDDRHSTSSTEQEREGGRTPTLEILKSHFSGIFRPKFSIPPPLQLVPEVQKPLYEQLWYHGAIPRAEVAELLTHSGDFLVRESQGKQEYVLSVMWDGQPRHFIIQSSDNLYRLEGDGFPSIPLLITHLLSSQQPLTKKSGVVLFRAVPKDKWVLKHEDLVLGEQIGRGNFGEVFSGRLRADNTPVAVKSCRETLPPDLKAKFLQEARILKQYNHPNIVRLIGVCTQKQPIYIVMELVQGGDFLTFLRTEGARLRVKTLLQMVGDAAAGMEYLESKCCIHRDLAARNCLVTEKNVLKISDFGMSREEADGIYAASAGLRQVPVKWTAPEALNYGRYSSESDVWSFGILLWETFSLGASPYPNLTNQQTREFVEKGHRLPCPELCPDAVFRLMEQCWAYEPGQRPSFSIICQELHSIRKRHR
T2 sequence (Q66L42 whole entry): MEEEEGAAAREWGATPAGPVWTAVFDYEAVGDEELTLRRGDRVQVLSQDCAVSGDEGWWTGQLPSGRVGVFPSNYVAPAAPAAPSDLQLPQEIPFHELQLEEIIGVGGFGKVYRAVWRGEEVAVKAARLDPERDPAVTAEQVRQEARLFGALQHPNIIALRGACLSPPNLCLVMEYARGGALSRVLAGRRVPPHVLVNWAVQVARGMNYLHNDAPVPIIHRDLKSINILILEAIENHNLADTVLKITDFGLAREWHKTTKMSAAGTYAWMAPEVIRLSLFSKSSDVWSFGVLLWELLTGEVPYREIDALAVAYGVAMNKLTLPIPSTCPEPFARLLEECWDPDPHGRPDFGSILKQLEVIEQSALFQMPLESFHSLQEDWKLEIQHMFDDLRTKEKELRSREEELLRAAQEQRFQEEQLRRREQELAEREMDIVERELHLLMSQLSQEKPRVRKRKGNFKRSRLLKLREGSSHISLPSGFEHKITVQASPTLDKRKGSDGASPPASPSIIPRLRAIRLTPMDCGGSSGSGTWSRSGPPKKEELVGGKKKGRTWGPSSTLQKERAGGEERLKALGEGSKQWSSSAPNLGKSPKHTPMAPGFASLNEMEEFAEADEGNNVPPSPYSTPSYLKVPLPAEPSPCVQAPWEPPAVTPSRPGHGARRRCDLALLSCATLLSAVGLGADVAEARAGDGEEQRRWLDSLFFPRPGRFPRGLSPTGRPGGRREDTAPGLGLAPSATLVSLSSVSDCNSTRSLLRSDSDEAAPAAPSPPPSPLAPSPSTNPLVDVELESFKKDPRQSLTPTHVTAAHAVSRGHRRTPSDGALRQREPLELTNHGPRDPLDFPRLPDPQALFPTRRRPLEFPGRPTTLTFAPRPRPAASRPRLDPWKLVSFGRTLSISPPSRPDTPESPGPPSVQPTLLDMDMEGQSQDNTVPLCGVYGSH

## CCC(C)(O)C#Cc1cc2c(ccn2-c2ccnc(N)n2)cn1 (centres unmarked) [BIIB-TTBK1i]
TAO1
  Percent Inhibition at 1μM: 75.9%
MLK2
  Percent Inhibition at 1μM: 60.1%
PIP4K2C; TLVIKEVSSEDIADMHSNLSNYHQYIVK, ADP probe
  Percent Inhibition at 1μM: 88.8%
PIP4K2C; TLVIKEVSSEDIADMHSNLSNYHQYIVK, ATP probe
  Percent Inhibition at 1μM: 76.5%
PIP4K2C; VKELPTLKDMDFLNK, ATP probe
  Percent Inhibition at 1μM: 67.9%
PIP5K3; ADP probe
  Percent Inhibition at 1μM: 90.2%
PIP5K3; ATP probe
  Percent Inhibition at 1μM: 95.9%
TTBK1, TTBK2
  Percent Inhibition at 1μM: 95.8%
CaMK1a; DLKPENLLYYSLDEDSK, Lys2, ADP probe
  Percent Inhibition at 1μM: 64.7%
CaMK1a; DLKPENLLYYSLDEDSK, Lys2, ATP probe
  Percent Inhibition at 1μM: 63.8%
CaMK1a; LVAIKCIAK, Lys1, ADP probe
  Percent Inhibition at 1μM: 69.3%
CaMK1a; LVAIKCIAK, Lys1, ATP probe
  Percent Inhibition at 1μM: 69.2%
PITSLRE
  Percent Inhibition at 1μM: 63.3%
FES; ADP probe
  Percent Inhibition at 1μM: 79.8%
FES; ATP probe
  Percent Inhibition at 1μM: 61.2%
MAP4K5; ADP probe
  Percent Inhibition at 1μM: 69.7%
MAP4K5; ATP probe
  Percent Inhibition at 1μM: 58.7%
